What was measured:
[1] = Miscibility and hydrogel formation of IKVAV PA / FGF2 PA binary systems (cryo-TEM, rheology); format: physicochemical; conditions: particularly at molar ratio 90:10
Procedure: For in vitro experiments: After lyophilization, PA powder was reconstituted in 150 mM NaCl and 3 mM KCl solution and adjusted to a pH of 7.4 using 1 μL additions of 1 M NaOH to ensure cell compatibility and material consistency. Different bioactive PAs were mixed at different mol % (see Table 3) and horn sonicated at 10% intensity, three times for 10 seconds. PA solutions were annealed at 80° C. for 30 min and then slowly cooled at 1° C. per minute to reach a final temperature of 27° C. using a thermocycler (Eppendorf PCR Thermocycler) for even and controlled heating and cooling of all samples. To prepare a PA coated substrate, 24-, 12-, or 6-well polystyrene cell culture plate or 12 mm and 18 mm glass coverslips (German Glass, Chemglass Life Science) were coated with poly-D-lysine (0.01 mg/mL, Sigma-Aldrich) for 3 h at 37° C. The plates were then rinsed with MilliQ water three times and allowed to dry for 4 h. PAs were painted on the coverslips or tissue culture plates by dragging a pipette (8-30 μL of annealed PAs (1 wt %)) to extrude a thin, even coating of material across the surface. PA coatings were incubated for 3 h at room temperature. The plates were gently rinsed with media before further use. For dye-labeled PAs experiments, Cy3-labeled-FGF2 PAs were co-assembled at 1 mol % with their corresponding non-labeled PA counterparts (see table 3).
Plunge-freezing for Cryo-TEM samples were prepared using a FEI model Vitrobot MarkIV (FEI). 7 μL of the sample solution ([PA]=0.05-0.1 wt % in H2O) was deposited on a plasma-cleaned TEM grid (300 mesh copper with lacey carbon, Electron Microscopy Sciences) and held in place with tweezers mounted on the Vitrobot. The specimen was blotted in an environment with 100% humidity at room temperature (blot force: 3, blot total: 1-2, wait time: 0.5-1 s, blot time: 3 s, drain time: 0-1 s), and plunged into a liquid ethane reservoir cooled by liquid nitrogen. The vitrified samples were stored in liquid nitrogen and then transferred to a Gatan 626 Cryo-TEM holder. Cryo-TEM images were obtained using a JEOL1230 electron microscope operating with a LaB6 filament at an accelerating voltage of 100 kV, equipped with a Gatan 831 CCD camera.
PA materials were prepared using the method described above for in vitro studies. An MCR302 Rheometer (Anton Paar) was used for all rheological studies. The instrument stage was set to 37° C. to simulate in vitro and in vivo conditions. The PA solution (150 μL) was placed on the sample stage and 30 μL of 25 mM CaCl2) solution was pipetted onto the underside of a 25 mm cone plate positioned above the material. […] The storage and loss modulus (G′ and G″) were recorded after a plateau occurred.

[2] = tested on: murine model of severe spinal cord injury (SCI); experiment: Corticospinal tract (CST) axon regrowth after SCI (BDA tracing); format: in vivo, mouse; conditions: 12 weeks after injury, BDA-labeled axons
Procedure: All experiments were conducted at the Simpson Querrey Institute at Northwestern University. 182 CD1 mice (Charles River) were subjects of this study (N=38 Sham, N=38 IKVAV PA2 alone, N=38 IKVAV PA2+FGF2 PA1, N=38 IKVAV PA2+FGF2 PA2, N=12 IKVAV PA1, N=12 Backbone PA, N=6 IKVAV PA4). The age of animals used in the study was in the range of 10-16 weeks. 8 independent in vivo experiments were carried out (injury+PA injection) and each of the 8 experiments had animals of the exact same age which were injected with at least the 4 main treatment groups: Sham, IKVAV PA2 alone, IKVAV PA2+FGF2 PA1, and IKVAV PA2+FGF2 PA2. Animals were anesthetized using 2.5% isoflurane gas with oxygen. A laminectomy was performed to expose the spinal cord at the T10-T11 spinal level. A severe contusive injury was performed using the Infinite Horizon Spinal Cord Impactor system (IH-0400 Precision Systems and Instrumentation) with 85 kdyn of impact force and a dwell time of 60 s. After the lesion, the skin was sutured using 9 mm wound clips (BD Biosciences) and the animals were recovered on a heating pad to maintain body temperature. Bladders were manually expressed daily during the entire 12 weeks of the experiment.
PAs (dissolved in sterile NaCl 0.9% solution at 1 wt %) were injected 24 h after SCI using a glass capillary micropipette (Sutter Instruments, Novato, CA) (outer diameter, 100 m) coated with Sigmacote (Sigma-Aldrich) to reduce surface tension as described elsewhere (19). The capillaries were loaded onto a Hamilton syringe using a female Luer adaptor (World Precision Instruments) controlled by a Micro4 microsyringe pump controller (World Precision Instruments). Under isoflurane anesthesia, autoclips were removed and the injury site was exposed. At 24 h post injury, the laminectomy in the spinal column was still intact and the bruise created by the lesion was visible. A stereotaxic Kopf apparatus was used to position the micropipette just dorsal to the lesion. The micropipette was lowered to a depth of 750 m measured from the dorsal surface of the cord, and 4-6 μL of the diluted amphiphile solution was injected at 1 L/min. […]
Axons labeled using BDA (Thermofisher, N7167) or stained with 5HT (Abcam) were quantified using Imaris® software version 9.3 as previously described (21). Lines were drawn across longitudinal spinal cord sections from the proximal border (PB) to the distal border (DB) of the SCI lesion at consistent distances and the number of axons intercepting the lines drawn was counted by researchers that were blinded to the experimental conditions. Multiple sections through the middle of the cord, where BDA or 5HT staining was denser, were counted per mouse and expressed as total intercepts per location, per animal. […]

Substance | miscibility and hydrogel formation when mixed with FGF2 PA1 or FGF2 PA2 [1] | CST axon regrowth within the lesion [2]
C16-A2G2E4GIKVAV [IKVAV PA2] | both miscible and could form hydrogels with similar mechanical properties | modest, but increased axon regrowth
C16-G4E4GIKVAV [IKVAV PA5] | immiscibility | 
C16-V2A2E4GIKVAV [IKVAV PA1] | immiscibility | some regrowth of axons
C16-VAG2E4GIKVAV [IKVAV PA4] | immiscibility | intermediate level of axon regrowth
